In article PMC8110578, “Phenylethynylbenzyl-modified biguanides inhibit pancreatic cancer tumor growth” (Scientific Reports, 2021):
Read-outs that look alike come from different tables or passages of the source.

Legend:
red blood cells [1] = assay: Hemolytic activity of PEB-biguanidium salts; format: cell-based; settings: red blood cells 2% v/v in PBS, 1 h at 37 °C
Description: The toxicity of PEB-Biguanidiums salts was estimated through their hemolytic activity by incubating red blood cells (RBC) with the compounds for 1 h (See Supplementary Table S13 and Supplementary Fig. S29).
Experimental. Red blood cells in Alsever’s solution were centrifuged for 10 min at 300g, washed 3 times with PBS buffer, and resuspended in PBS at 2% v/v. To each well of a 96-well plate, 195 µL of red blood cell solution and 5 µL of biguanidium salt in DMSO were added, and the plate was incubated with light agitation for 1 h at 37 °C. The plate was then centrifuged for 10 min at 300g, and 50 µL of the supernatant solution of each well was transferred to another plate. Absorbance was measured at λ = 405 nm. Each measurement was performed in triplicate in three different experiments.

KP4 cells = assay: Growth assay (crystal violet), KP4 cells; format: cell-based, human; settings: KP4 cells, 3 days treatment, crystal violet retention assay, read-out: IC50 KP4
Description: (§1) All chemicals were purchased from Aldrich Chemicals in their highest purity and used without further purification. Deuterated dimethylsulfoxide (DMSO-d^6) and deuterated chloroform (CDCl3) were purchased from CDN Isotopes. NMR spectra were recorded on Bruker advance 400 and 100 spectrometers. Coupling constants are given in hertz (Hz) and chemical shifts are given in parts per million (ppm, δ) measured relative to the residual solvent (the multiplicity of the signals are given as s: singlet, d: doublet, t: triplet, and m: multiplet). High-resolution mass spectra (HRMS) were recorded on a TSQ Quantum Ultra (Thermo Scientific) triple quadrupole with accurate mass option instrument (Université de Montréal Mass Spectrometry Facility). MS experiences were performed using an UltrafleXtreme MALDI TOF/TOF mass spectrometer equipped with a SmartBeam II Nd:Yag/355 nm laser operating at 1 kHz and providing a laser focus down to 20 μm in diameter (Bruker Daltonics, Billerica, MA). The data acquisition for MS was performed in positive ion mode using the linear geometry with flexControl 3.4 (Bruker Daltonics, Billerica, MA). Acceleration voltage was set to + 25 kV and all other instrumental parameters (delayed extraction parameters, source voltages, detector gain, laser energy, etc.) were optimized for maximum S/N for the drug compounds. L-α-Phosphatidylcholine was purchased from Avanti Polar Lipids. Transport and depolarization studies as well as absorbance measurements were performed on a Varian Cary Eclipse fluorescence spectrophotometer. The hemolysis assays were performed on a Fluostar Optima plate reader. Single crystals of C18H18F3N5O3S were obtained from chloroform. A suitable crystal was selected and analysed on a Bruker Venture Metaljet diffractometer. Crystal violet retention assay was used for cell growth assays and IC50 were determined using Prism (GraphPad). NAD/NADH quantitation colorimetric kit (#K337-100) from Biovision was used according to manufacturer’s instructions. ECAR (extracellular acidification rate) and OCR of KP4 cells (oxygen consumption rate) were measured on a Seahorse XF-24 (Agilent).
(§2) Experimental. KP4 (Riken RCB1005) and PSN1 (ATCC: CRM-CRL-3211), were cultured in Dulbecco's modified Eagle's medium (DMEM) (Wisent, St-Bruno, QC) supplemented with 10 % of fetal bovine serum (FBS) (Wisent). HPNE hTERT (ATCC: CRL1423) were cultured in a mix of 75% DMEM without glucose (Sigma Cat#. D-5030) with additional 2 mM L-glutamine and 1.5 g/L sodium bicarbonate, 25% Medium M3 Base (Incell Corp. Cat# M300F- 500), fetal bovine serum 5% (wisent 10 ng/ml human recombinant EGF (Sigma-Aldrich), 5.5 mM D-glucose (Sigma-Aldrich), 750 ng/ml puromycin (Sigma-Aldrich). For dose-response assays, cells were seeded in 96 well plates (company). After 24 h, treatments were applied and cells were grown for 3 more days. Crystal violet retention assay used for cell growth assays were described previously^2. The data is expressed as relative absorbance of crystal violet extracted from the cells and diluted in 10 % acetic acid. IC50 were determined using Prism (GraphPad). Tumor spheres were grew according to Ferbeyre et al^3.

[2] = tested on: HPNE cells (normal immortalized pancreatic epithelial cells); assay: Growth assay (crystal violet), HPNE cells; format: cell-based, human; settings: 3 days treatment, crystal violet retention assay
Description: . The IC50 of most of the synthetic biguanides in HPNE cells was higher than for cancer cells (Supplementary Table S12).
as §1, §2

red blood cells [3] = tested on: red blood cells; design: method as in PMID 23143143, doi:10.1039/C3md00293d; settings: cited from earlier work

Row | Compound | HC 10% (µM) (red blood cells [1]) | HC 10% (µg/ml) (red blood cells [1]) | IC50 (KP4 cells) | IC50 [2] | HC50 (concentration that kills 50% of red blood cells) (red blood cells [3]) | IC50 (KP4 cells; Homo sapiens, KP-4, 72 h) | IC50 ([2]; Homo sapiens, HPNE, 72 h)
1 | N=C(N)NC(=N)Nc1ccc(CCc2ccccc2)cc1 [4b, 4-(phenylethylphenyl)biguanidium] | > 232 µM | > 100 µg/mL | 13.9 µM | 47.4 µM |  |  | 
2 | C[n+]1cn(Cc2ccc(C#Cc3ccccc3)cc2)c2ccccc21 [A.3] |  |  |  |  | 150 mM |  | 
3 | N=C(N)NC(=N)NCc1ccc(CCc2ccccc2)cc1 [2c, 4-(phenylethyl)benzylbiguanide] | 151 µM | 50 µg/mL |  |  |  | 15.8 µM | 37.4 µM
4 | N=C(N)NC(=N)NCc1ccc(CCc2ccccc2)cc1 [2a, 4-(phenylethyl)benzylbiguanide] | > 173 µM | > 100 µg/mL | 20.7 µM | 23.2 µM |  |  | 
5 | N=C(N)NC(=N)Nc1ccc(CCc2ccccc2)cc1 [4c, 4-(phenylethylphenyl)biguanidium] | > 315 µM | > 100 µg/mL | 16.9 µM |  |  |  | 
6 | N=C(N)NC(=N)NCc1ccc(C#Cc2ccccc2)cc1 [1c, 4-(phenylethynyl)benzylbiguanide] | > 305 µM | > 100 µg/mL | 9.21 µM | 28.1 µM |  |  | 
7 | N=C(N)NC(=N)Nc1ccc(C#Cc2ccccc2)cc1 [3b, 4-(phenylethynylphenyl)biguanidium] | > 234 µM | > 100 µg/mL | 58.3 µM | 60.4 µM |  |  | 
8 | N=C(N)NC(=N)NCc1ccc(CCc2ccccc2)cc1 [2b, 4-(phenylethyl)benzylbiguanide] | > 225 µM | > 100 µg/mL | 17.4 µM | 31.3 µM |  |  | 
9 | N=C(N)NC(=N)Nc1ccc(C#Cc2ccccc2)cc1 [3c, 4-(phenylethynylphenyl)biguanidium] | > 319 µM | > 100 µg/mL | 38.9 µM | 52.6 µM |  |  | 
10 | C(#Cc1ccc(Cn2c[n+](Cc3ccccc3)c3ccccc32)cc1)c1ccccc1 [A.2] |  |  |  |  | 1 mM |  | 
11 | N=C(N)NC(=N)Nc1ccc(C#Cc2ccccc2)cc1 [3a, 4-(phenylethynylphenyl)biguanidium] | > 179 µM | > 100 µg/mL | 17 µM | 20.2 µM |  |  | 
12 | C(#Cc1ccc(Cn2c[n+](Cc3ccc(C#Cc4ccccc4)cc3)c3ccccc32)cc1)c1ccccc1 [A.1] |  |  |  |  | 0.15 mM |  | 
13 | N=C(N)NC(=N)Nc1ccc(CCc2ccccc2)cc1 [4a, 4-(phenylethylphenyl)biguanidium] | > 178 µM | > 100 µg/mL |  |  |  | 12.2 µM | 32.6 µM
